Laboratory results from the NIST ThermoML archive (doi:10.1016/j.jct.2011.12.022).
Several values for one entry are separate records, joined by “and”; a condition that tells them apart may be missing. Equal entries are not always repeated. ± gives the expanded uncertainty stated by the source.

Assay: mn = molality of the nth substance listed, in mol/kg
Conditions: 101 kPa, Liquid, Pycnometric method

CN(C)C(=N)NC(=N)N.Cl [N,N-dimethylimidodicarbonimidic diamide hydrochloride] + O
Conditions | mass density
288.15 K, m1 = 0.0309 | 1000.34 ± 0.36 kg/m3
288.15 K, m1 = 0.0416 | 1000.77 ± 0.36 kg/m3
288.15 K, m1 = 0.0506 | 1001.17 ± 0.36 kg/m3
288.15 K, m1 = 0.0608 | 1001.55 ± 0.36 kg/m3
288.15 K, m1 = 0.0712 | 1001.9 ± 0.36 kg/m3
288.15 K, m1 = 0.0815 | 1002.31 ± 0.36 kg/m3
288.15 K, m1 = 0.0922 | 1002.71 ± 0.36 kg/m3
288.15 K, m1 = 0.1028 | 1003.21 ± 0.36 kg/m3
288.15 K, m1 = 0.1138 | 1003.39 ± 0.36 kg/m3
288.15 K, m1 = 0.1207 | 1003.71 ± 0.36 kg/m3
288.15 K, m1 = 0.1527 | 1004.89 ± 0.36 kg/m3
298.15 K, m1 = 0.029 | 998.2 ± 0.37 kg/m3
298.15 K, m1 = 0.0415 | 998.7 ± 0.38 kg/m3
298.15 K, m1 = 0.0508 | 999.07 ± 0.38 kg/m3
298.15 K, m1 = 0.0592 | 999.42 ± 0.38 kg/m3
298.15 K, m1 = 0.0725 | 999.91 ± 0.38 kg/m3
298.15 K, m1 = 0.0769 | 1000.1 ± 0.38 kg/m3
298.15 K, m1 = 0.0904 | 1000.51 ± 0.37 kg/m3
298.15 K, m1 = 0.1072 | 1001.13 ± 0.38 kg/m3
298.15 K, m1 = 0.1191 | 1001.63 ± 0.37 kg/m3 and 1001.57 ± 0.37 kg/m3
298.15 K, m1 = 0.1303 | 1002 ± 0.38 kg/m3
308.15 K, m1 = 0.0306 | 995.14 ± 0.42 kg/m3
308.15 K, m1 = 0.0404 | 995.53 ± 0.42 kg/m3
308.15 K, m1 = 0.0514 | 995.89 ± 0.42 kg/m3
308.15 K, m1 = 0.058 | 996.2 ± 0.42 kg/m3
308.15 K, m1 = 0.0704 | 996.6 ± 0.42 kg/m3
308.15 K, m1 = 0.0811 | 996.95 ± 0.42 kg/m3
308.15 K, m1 = 0.0915 | 997.53 ± 0.42 kg/m3
308.15 K, m1 = 0.1014 | 997.74 ± 0.42 kg/m3
308.15 K, m1 = 0.1218 | 998.62 ± 0.42 kg/m3
308.15 K, m1 = 0.152 | 999.56 ± 0.42 kg/m3

CNC(=C[N+](=O)[O-])NCCSCc1ccc(CN(C)C)o1.Cl [ranitidine hydrochloride] + O
Conditions | mass density [kg/m3]
288.15 K, m1 = 0.0202 | 1000.92 ± 0.37
288.15 K, m1 = 0.0306 | 1001.78 ± 0.37
288.15 K, m1 = 0.0407 | 1002.69 ± 0.37
288.15 K, m1 = 0.0488 | 1003.32 ± 0.37
288.15 K, m1 = 0.0602 | 1004.33 ± 0.37
288.15 K, m1 = 0.0702 | 1005.27 ± 0.37
288.15 K, m1 = 0.0813 | 1006.23 ± 0.38
288.15 K, m1 = 0.092 | 1007.13 ± 0.38
288.15 K, m1 = 0.1019 | 1007.93 ± 0.38
288.15 K, m1 = 0.1149 | 1009.12 ± 0.38
288.15 K, m1 = 0.1521 | 1012.15 ± 0.38
298.15 K, m1 = 0.0103 | 997.99 ± 0.38
298.15 K, m1 = 0.0198 | 998.81 ± 0.38
298.15 K, m1 = 0.0295 | 999.58 ± 0.38
298.15 K, m1 = 0.0501 | 1001.38 ± 0.38
298.15 K, m1 = 0.0603 | 1002.17 ± 0.39
298.15 K, m1 = 0.0697 | 1002.94 ± 0.39
298.15 K, m1 = 0.0789 | 1003.7 ± 0.39
298.15 K, m1 = 0.0907 | 1004.69 ± 0.39
298.15 K, m1 = 0.0994 | 1005.38 ± 0.39
298.15 K, m1 = 0.1171 | 1006.83 ± 0.4
298.15 K, m1 = 0.1475 | 1009.32 ± 0.4
308.15 K, m1 = 0.0109 | 994.91 ± 0.42
308.15 K, m1 = 0.0191 | 995.59 ± 0.43
308.15 K, m1 = 0.0313 | 996.62 ± 0.43
308.15 K, m1 = 0.0428 | 997.58 ± 0.43
308.15 K, m1 = 0.0507 | 998.2 ± 0.43
308.15 K, m1 = 0.059 | 998.85 ± 0.43
308.15 K, m1 = 0.0695 | 999.78 ± 0.43
308.15 K, m1 = 0.0876 | 1001.15 ± 0.43
308.15 K, m1 = 0.0986 | 1002.15 ± 0.43
308.15 K, m1 = 0.119 | 1003.69 ± 0.43
308.15 K, m1 = 0.1483 | 1006.01 ± 0.44

COc1cccc([C@@]2(O)CCCC[C@@H]2CN(C)C)c1.Cl [tramadol hydrochloride] + O
Conditions | mass density [kg/m3]
288.15 K, m1 = 0.0138 | 999.75 ± 0.36
288.15 K, m1 = 0.026 | 1000.36 ± 0.36
288.15 K, m1 = 0.0298 | 1000.53 ± 0.36
288.15 K, m1 = 0.04 | 1001.04 ± 0.36
288.15 K, m1 = 0.0536 | 1001.72 ± 0.37
288.15 K, m1 = 0.0604 | 1002.03 ± 0.36
288.15 K, m1 = 0.0702 | 1002.51 ± 0.36
288.15 K, m1 = 0.0805 | 1002.96 ± 0.36
288.15 K, m1 = 0.0903 | 1003.44 ± 0.37
288.15 K, m1 = 0.099 | 1003.81 ± 0.37
288.15 K, m1 = 0.1207 | 1004.82 ± 0.37
288.15 K, m1 = 0.1511 | 1006.21 ± 0.37
298.15 K, m1 = 0.0114 | 997.56 ± 0.37
298.15 K, m1 = 0.0211 | 998.02 ± 0.38
298.15 K, m1 = 0.0296 | 998.42 ± 0.38
298.15 K, m1 = 0.0403 | 998.93 ± 0.38
298.15 K, m1 = 0.0501 | 999.29 ± 0.38
298.15 K, m1 = 0.0607 | 999.82 ± 0.38
298.15 K, m1 = 0.0804 | 1000.74 ± 0.38
298.15 K, m1 = 0.0923 | 1001.23 ± 0.38
298.15 K, m1 = 0.1016 | 1001.66 ± 0.38
298.15 K, m1 = 0.1183 | 1002.31 ± 0.38
298.15 K, m1 = 0.149 | 1003.78 ± 0.38
308.15 K, m1 = 0.0117 | 994.5 ± 0.42
308.15 K, m1 = 0.0195 | 994.81 ± 0.42
308.15 K, m1 = 0.0299 | 995.32 ± 0.42
308.15 K, m1 = 0.0399 | 995.75 ± 0.42
308.15 K, m1 = 0.0493 | 996.19 ± 0.42
308.15 K, m1 = 0.06 | 996.6 ± 0.42
308.15 K, m1 = 0.0717 | 997.13 ± 0.42
308.15 K, m1 = 0.082 | 997.64 ± 0.42
308.15 K, m1 = 0.0912 | 997.99 ± 0.42
308.15 K, m1 = 0.1 | 998.39 ± 0.42
308.15 K, m1 = 0.1181 | 999.15 ± 0.42
308.15 K, m1 = 0.1501 | 1000.52 ± 0.43
